“Also recorded” adds a separate entry of the source.

In one assay the test system is NF-κB. Nature of the assay: NF-κB inhibitor screen: basal NF-κB-dependent luciferase expression in HEK/NF-κB cell line. Format: cell-based. In short, it runs like this:
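Basal NF-κB-driven luciferase (six-copy element, stable HEK293 line) was read with Brite-Glo. Compound was added in 0.3% DMSO 24 h post-plating, initially at 1.0 μM and then across 10–3300 nM in six steps, in triplicate wells. Signals were expressed relative to DMSO or to the lowest concentration tested.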

The next assay relates to AP-1. Nature of the assay: AP-1 inhibitor screen: basal AP-1-dependent luciferase expression in HEK/AP-1 cell line. Format: cell-based. In short, it runs like this:
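Compound effects on unstimulated reporter signal were tested: 1.0 μM compound (0.3% DMSO) for 48 hr on HEK cells bearing an AP-1 (TGACTAA ×3)-luciferase construct, seeded 24 hr earlier. Triplicate luminescence means were normalized to DMSO-only wells; dose-response experiments were repeated 2–4 times.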

The test system of a further assay is eIF4E. Put plainly: eIF4E inhibitor screen: luciferase under FGF 5′UTR in FaDu cells (highly cap-dependent translation). The class given is cell-based. As to conditions: for luciferase expression under the control of the FGF 5′UTR: 1.0 μM, 48 h, FaDu UTR cells, normalized to DMSO (FIG. 8). The text has this: Since highly cap-dependent translation is associated with synthesis of proteins involved in cancer, a compound that inhibits this pathway may be used as an anti-cancer agent. The assay was developed by cloning the highly structured 5′ UTR of FGF, which requires high levels of eIF4E before protein synthesis can initiate, into the proper orientation of the reporter gene luciferase, and then stably transfecting the modified luciferase gene into the cell line FaDu that is known to have high levels of eIF4E. The activity of luciferase is then monitored in the presence and absence of the tested compound.
Generation of Stable Cell Lines: The pMS110 plasmid (pGL3-control plasmid from Promega which contains a neo selectable marker) was used to generate pMS110-5′UTR by cloning the 5′ UTR of FGF just upstream of the luciferase AUG start codon. FaDu cells, a head and neck cancer cell line, were transfected using Lipofectamine2000 (Invitrogen). Twenty-four hours after transfection G418 was added at 500 μg/ml. Cells were maintained in G418 for 14 days, and then individual colonies were transferred to a 96-well plate for propagation. Individual clones were analyzed for luciferase expression by plating 10^4 cells per well in a 96-well plate for 24 hours before lysing the cells and analyzing for luciferase activity in a Victor III (Perkin Elmer) or Lucy2 (Rosys Anthos). FaDu9000 and FaDuUTR were the clones that expressed the highest level of active luciferase following transfection of pMS110 and pMS110-5′UTR, respectively.
Analysis of Rapamycin Responsiveness: Cells of FaDu9000 and FaDuUTR were plated at 1×10^4 cells/well in a 96-well dish. Twenty-four hours after plating, 0.1% DMSO (vehicle control) or 10 nM rapamycin were added to each well, and the cells were maintained for an additional 24 or 48 hours. The cells were then lysed and luciferase activity was determined using BriteGlo (Promega) as per manufacturer's instruction and recorded using the Victor III. Following subtraction of background activity, the mean value of quadruplicate samples for a given experiment was determined, and the treated cells were normalized to the control. At least four separate experiments were conducted, and the mean and standard error were calculated. To determine if rapamycin affected cell viability, an MTS assay (Cell Proliferation One Solution, Promega) was carried out on each population at 48 hours in two separate experiments.
The FaDu cell line stably transfected with FGF 5′UTR was used to screen thirty-nine representative compounds, each at a concentration of 1.0 μM. Additional cells were treated with vehicle, 0.3% DMSO. Cells were plated for twenty-four hours in a 96-well plate. Each compound was then added to triplicate wells, and the cells were incubated for forty-eight hours before measuring luciferase activity as above. The mean luciferase activity was measured using Promega's Brite-Glo kit, and the mean for each sample was normalized to DMSO. The experiment was then repeated, and the average and standard deviation of the two experiments were determined (FIG. 8).

Another assay has as its system carageenan-induced edema. Put plainly: Carrageenan-induced rat paw edema test (anti-inflammatory activity). Format: in vivo, Sprague-Dawley rats. In short, it runs like this: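 Edema was raised by sub-plantar injection of 1% carrageenan into the right hind paw, 1 h after dosing 18 h-fasted male/female Sprague-Dawley rats (150-250 g) with 50 mg/kg p.o. in 0.1% CMC. Swelling was measured by displacement 3 h later and expressed as % protection against saline control.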

Take “2-(4-Methyl-2-methylamino-thiazol-5-yl)-3-(4-chloro-phenyl)-3H-quinazolin-4-one [Example 244]”: in the assay with NF-κB (10 nM-3300 nM (FIG. 12), listed as Compound 4), the “basal NF-κB-dependent luciferase, six-point dose response” value is “substantial activity at submicromolar concentrations; also recorded: robust inhibition”. Further, the “inhibition of basal NF-κB-dependent luciferase expression” value in the assay on NF-κB (3.3 μM (FIG. 12)) is on record as “about 50%”. Besides, the “inhibition of NF-κB (summary statement)” value in the assay with NF-κB (summary in the disclosure) is reported as “capable of inhibiting”. The “basal AP-1-dependent luciferase, six-point dose response” value in the assay on AP-1 (10 nM-3300 nM (FIG. 14)) was “substantial activity at submicromolar concentrations”. Moreover, the “luciferase expression under the control of the FGF 5′UTR” value (from here on “luciferase expression under the control”) in the assay with eIF4E is recorded as “inhibited luciferase expression”. Moreover, in the assay with eIF4E (summary in the disclosure), the “inhibition of highly cap-dependent translation (summary statement)” value is recorded as “capable of inhibiting”.

For `COc1ccc(C(=O)c2sc(Nc3ccccc3)nc2N)cc1` [Example 115, (4-Amino-2-phenylamino-thiazole-5-yl)-4-(methoxy-phenyl)-methanone], the “% Protection P” value in the assay on carageenan-induced edema (rat paw edema, 50 mg/kg, reading 3 hours after carrageenan, [(Control−Test)/Control]×100%, 50 mg/kg) is 90.92%. Also, the “basal NF-κB-dependent luciferase expression” value in the assay on NF-κB (1.0 μM screen of 39 compounds (FIG. 11)) was “potentiated expression in one of the two experiments”. The “luciferase expression under the control” value with eIF4E is recorded as “increased luciferase expression”.

In general, inhibition refers to the share of the control response that was lost under treatment. Regarding `CCOC(=O)Nc1nc(-c2ccccc2)c(-c2nc3ccccc3c(=O)n2-c2ccccc2)s1` [Example 159, [5-(4-Oxo-3-phenyl-3,4-dihydro-quinazolin-2-yl)-4-phenyl-thiazol-2-yl]-carbamic acid ethyl ester], the inhibition in vivo at 50 mg/kg in the assay on carageenan-induced edema (po, 3 h, carrageenan-induced rat paw edema, defined in Example 397, read-out: % Protection) was determined as 75%. Besides, the inhibition at 1 µM was 80% in the assay with NF-κB (1 uM, determined as described in Example 398, read-out: NFkB inhibition @ 1 uM) and 7% in the assay on AP-1 (AP1, 1 uM, determined as described in Example 398). For the same molecule, in the assay with eIF4E, the “luciferase expression under the control” value is on record as “increased luciferase expression”.

Source of the values: patent US8829014B2, “Thiazole and thiophene analogues, and their use in treating autoimmune diseases and cancers” (Board of Supervisors of Louisiana State University and …, priority 2006, dated 2014).
